Experimental data published in patent US12077503B2, “Substituted cyclic amides and their use as herbicides” (FMC CORPORATION, priority 2015, dated 2024).

Assays:
Type in all cases: in vivo
[1] = system: barnyardgrass (Echinochloa crus-galli); test: Test G Pre-Emergence Protocol; details: Echinochloa crus-galli, pre-emergence, 312 h, evaluated after 13 days; for pest or weed control at 15.625 g/ha: 15.625 g ai/ha; for pest or weed control at 15.625 g/ha / pest or weed control at 250 g/ha: read-out: Barnyardgrass damage rating (100=total damage to plant; 0=no damage to plant); for pest or weed control at 62.5 g/ha: 62.5 g ai/ha, 100=total damage to plant, 0=no damage to plant, read-out: Barnyardgrass damage rating; for pest or weed control at 250 g/ha: 250 g ai/ha
Method in brief: (§1)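 Herbicidal effect was rated 13 days post-application on a scale where 100 equals total damage. Spraying took place the day after sowing, using 15.625, 62.5 or 250 g/ha of compound in a 50:50 acetone/water solution with 0.5% Tween 20.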

corn (Zea mays) [2] = test: Test G Pre-Emergence Protocol; details: Zea mays, pre-emergence, 312 h, evaluated after 13 days; for plant injury at 15.625 g/ha: 15.625 g ai/ha; for plant injury at 15.625 g/ha / plant injury at 250 g/ha: read-out: Corn damage rating (100=total damage to plant; 0=no damage to plant); for plant injury at 62.5 g/ha: 62.5 g ai/ha, 100=total damage to plant, 0=no damage to plant, read-out: Corn damage rating; for plant injury at 250 g/ha: 250 g ai/ha
Method in brief: as §1

[3] = system: giant foxtail (Setaria faberi); test: Test G Pre-Emergence Protocol; details: Setaria faberi, pre-emergence, 312 h, evaluated after 13 days; for pest or weed control at 15.625 g/ha: 15.625 g ai/ha; for pest or weed control at 15.625 g/ha / pest or weed control at 250 g/ha: read-out: Foxtail, Giant damage rating (100=total damage to plant; 0=no damage to plant); for pest or weed control at 62.5 g/ha: 62.5 g ai/ha, 100=total damage to plant, 0=no damage to plant, read-out: Foxtail, Giant damage rating; for pest or weed control at 250 g/ha: 250 g ai/ha
Method in brief: as §1

[4] = system: ivy-leaved morning glory (Ipomoea hederacea); test: Test G Pre-Emergence Protocol; details: Ipomoea, pre-emergence, 312 h, evaluated after 13 days; for pest or weed control at 62.5 g/ha: 62.5 g ai/ha, 100=total damage to plant, 0=no damage to plant, read-out: Morningglory, Ivy-leaved damage rating; for pest or weed control at 250 g/ha: 250 g ai/ha
Method in brief: as §1

[5] = system: redroot pigweed (Amaranthus retroflexus); test: Test G Pre-Emergence Protocol; details: Amaranthus retroflexus, pre-emergence, 312 h, evaluated after 13 days; for pest or weed control at 15.625 g/ha: 15.625 g ai/ha; for pest or weed control at 15.625 g/ha / pest or weed control at 250 g/ha: read-out: Pigweed, Redroot damage rating (100=total damage to plant; 0=no damage to plant); for pest or weed control at 62.5 g/ha: 62.5 g ai/ha, 100=total damage to plant, 0=no damage to plant, read-out: Pigweed, Redroot damage rating; for pest or weed control at 250 g/ha: 250 g ai/ha
Method in brief: as §1

[6] = system: velvetleaf (Abutilon theophrasti); test: Test G Pre-Emergence Protocol; details: Abutilon theophrasti, pre-emergence, 312 h, evaluated after 13 days; for pest or weed control at 15.625 g/ha: 15.625 g ai/ha; for pest or weed control at 15.625 g/ha / pest or weed control at 250 g/ha: read-out: Velvetleaf damage rating (100=total damage to plant; 0=no damage to plant); for pest or weed control at 62.5 g/ha: 62.5 g ai/ha, 100=total damage to plant, 0=no damage to plant, read-out: Velvetleaf damage rating; for pest or weed control at 250 g/ha: 250 g ai/ha
Method in brief: as §1

[7] = system: barnyardgrass (Echinochloa crus-galli); test: Test G Post-Emergence Protocol; details: Echinochloa crus-galli, post-emergence, 312 h, read-out: Barnyardgrass damage rating; for pest or weed control at 15.625 g/ha: 15.625 g ai/ha, evaluated after 13 days (100=total damage to plant; 0=no damage to plant); for pest or weed control at 62.5 g/ha: 62.5 g ai/ha; for pest or weed control at 62.5 g/ha / pest or weed control at 250 g/ha: evaluated after 13 days, 100=total damage to plant, 0=no damage to plant; for pest or weed control at 250 g/ha: 250 g ai/ha
Method in brief: (§2)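 Values are percent visual injury at 13 days after treatment (0 none, 100 total). Treatment was a post-emergence spray at 15.625, 62.5 or 250 g/ha on 8-day-old pot plants kept at 24/16 °C.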

corn (Zea mays) [8] = test: Test G Post-Emergence Protocol; details: Zea mays, post-emergence, 312 h, read-out: Corn damage rating; for plant injury at 15.625 g/ha: 15.625 g ai/ha, evaluated after 13 days (100=total damage to plant; 0=no damage to plant); for plant injury at 62.5 g/ha: 62.5 g ai/ha; for plant injury at 62.5 g/ha / plant injury at 250 g/ha: evaluated after 13 days, 100=total damage to plant, 0=no damage to plant; for plant injury at 250 g/ha: 250 g ai/ha
Method in brief: as §2

[9] = system: giant foxtail (Setaria faberi); test: Test G Post-Emergence Protocol; details: Setaria faberi, post-emergence, 312 h, read-out: Foxtail, Giant damage rating; for pest or weed control at 15.625 g/ha: 15.625 g ai/ha, evaluated after 13 days (100=total damage to plant; 0=no damage to plant); for pest or weed control at 62.5 g/ha: 62.5 g ai/ha; for pest or weed control at 62.5 g/ha / pest or weed control at 250 g/ha: evaluated after 13 days, 100=total damage to plant, 0=no damage to plant; for pest or weed control at 250 g/ha: 250 g ai/ha
Method in brief: as §2

[10] = system: ivy-leaved morning glory (Ipomoea hederacea); test: Test G Post-Emergence Protocol; details: Ipomoea, post-emergence, 312 h, read-out: Morningglory, Ivy-leaved damage rating; for pest or weed control at 15.625 g/ha: 15.625 g ai/ha, evaluated after 13 days (100=total damage to plant; 0=no damage to plant); for pest or weed control at 62.5 g/ha: 62.5 g ai/ha; for pest or weed control at 62.5 g/ha / pest or weed control at 250 g/ha: evaluated after 13 days, 100=total damage to plant, 0=no damage to plant; for pest or weed control at 250 g/ha: 250 g ai/ha
Method in brief: as §2

[11] = system: redroot pigweed (Amaranthus retroflexus); test: Test G Post-Emergence Protocol; details: Amaranthus retroflexus, post-emergence, 312 h, read-out: Pigweed, Redroot damage rating; for pest or weed control at 15.625 g/ha: 15.625 g ai/ha, evaluated after 13 days (100=total damage to plant; 0=no damage to plant); for pest or weed control at 62.5 g/ha: 62.5 g ai/ha; for pest or weed control at 62.5 g/ha / pest or weed control at 250 g/ha: evaluated after 13 days, 100=total damage to plant, 0=no damage to plant; for pest or weed control at 250 g/ha: 250 g ai/ha
Method in brief: as §2

[12] = system: velvetleaf (Abutilon theophrasti); test: Test G Post-Emergence Protocol; details: Abutilon theophrasti, post-emergence, 312 h, read-out: Velvetleaf damage rating; for pest or weed control at 15.625 g/ha: 15.625 g ai/ha, evaluated after 13 days (100=total damage to plant; 0=no damage to plant); for pest or weed control at 62.5 g/ha: 62.5 g ai/ha; for pest or weed control at 62.5 g/ha / pest or weed control at 250 g/ha: evaluated after 13 days, 100=total damage to plant, 0=no damage to plant; for pest or weed control at 250 g/ha: 250 g ai/ha
Method in brief: as §2

[13] = read-out: Morningglory, Ivy-leaved damage rating (100=total damage to plant; 0=no damage to plant)

Compound | pest or weed control at 15.625 g/ha [1] | pest or weed control at 62.5 g/ha [1] | pest or weed control at 250 g/ha [1] | plant injury at 15.625 g/ha (corn (Zea mays) [2]) | plant injury at 62.5 g/ha (corn (Zea mays) [2]) | plant injury at 250 g/ha (corn (Zea mays) [2]) | pest or weed control at 15.625 g/ha [3] | pest or weed control at 62.5 g/ha [3] | pest or weed control at 250 g/ha [3] | pest or weed control at 62.5 g/ha [4] | pest or weed control at 250 g/ha [4, 13] | pest or weed control at 15.625 g/ha [5] | pest or weed control at 62.5 g/ha [5] | pest or weed control at 250 g/ha [5] | pest or weed control at 15.625 g/ha [6] | pest or weed control at 62.5 g/ha [6] | pest or weed control at 250 g/ha [6] | pest or weed control at 15.625 g/ha [7] | pest or weed control at 62.5 g/ha [7] | pest or weed control at 250 g/ha [7] | other results
CN1C[C@H](c2ccc(C(F)(F)F)cc2)[C@@H](C(=O)Nc2cccc(Cl)c2S(C)(=O)=O)C1=O (racemic) [Compound 1661] | 0% | 0% | 0% | 0% | 0% | 10% | 0% | 50% | 80% | 0% | 10% | 0% | 0% | 20% | 0% | 0% | 0% | 0% | 20% | 10% | pest or weed control at 15.625 g/ha ([4]; 15.625 g ai/ha, read-out: Morningglory, Ivy-leaved damage rating (100=total damage to plant; 0=no damage to plant)): 0%; plant injury at 15.625 g/ha (corn (Zea mays) [8]): 0%; plant injury at 62.5 g/ha (corn (Zea mays) [8]): 0%; plant injury at 250 g/ha (corn (Zea mays) [8]): 0%; pest or weed control at 15.625 g/ha [9]: 0%; pest or weed control at 62.5 g/ha [9]: 60%; pest or weed control at 250 g/ha [9]: 60%; pest or weed control at 15.625 g/ha [10]: 0%; pest or weed control at 62.5 g/ha [10]: 0%; pest or weed control at 250 g/ha [10]: 0%; pest or weed control at 15.625 g/ha [11]: 0%; pest or weed control at 62.5 g/ha [11]: 20%; pest or weed control at 250 g/ha [11]: 40%; pest or weed control at 15.625 g/ha [12]: 0%; pest or weed control at 62.5 g/ha [12]: 0%; pest or weed control at 250 g/ha [12]: 10%
Cc1cc(C2CN(C)C(=O)C2C(=O)Nc2cccc(F)c2F)cc(C)c1Cl (centres unmarked) [Compound 1700] | 20% | 50% | 70% | 0% | 0% | 30% | 40% | 80% | 90% | 10% | 20% | 0% | 0% | 0% | 0% | 0% | 0% | 20% | 50% | 70% | plant injury at 15.625 g/ha (corn (Zea mays) [8]): 30%; plant injury at 62.5 g/ha (corn (Zea mays) [8]): 30%; plant injury at 250 g/ha (corn (Zea mays) [8]): 40%; pest or weed control at 15.625 g/ha [9]: 40%; pest or weed control at 62.5 g/ha [9]: 60%; pest or weed control at 250 g/ha [9]: 70%; pest or weed control at 15.625 g/ha [10]: 20%; pest or weed control at 62.5 g/ha [10]: 20%; pest or weed control at 250 g/ha [10]: 60%; pest or weed control at 15.625 g/ha [11]: 0%; pest or weed control at 62.5 g/ha [11]: 0%; pest or weed control at 250 g/ha [11]: 0%; pest or weed control at 15.625 g/ha [12]: 0%; pest or weed control at 62.5 g/ha [12]: 0%; pest or weed control at 250 g/ha [12]: 0%
